These results are taken from ChEMBL document CHEMBL4020732, “Synthesis, structural characterization and biological activity of novel Knoevenagel condensates on DLD-1 human colon carcinoma” (Bioorg Med Chem Lett, 2017).

The nature of experiment [1]: Glutathione reactivity assessed as rate constant for total GSH loss by UV-vis spectrophotometric method.
Experiment [2] is described as follows: Antioxidant activity of the compound assessed as DPPH radical scavenging activity at 1 mM after 5 mins by spectrophotometric method. In kind it is functional.
Experiment [3] in a line: Antioxidant activity assessed as ABTS radical scavenging activity at 100 uM after 5 mins by spectrophotometric method. In kind it is functional.
Experiment [4] is described as follows: Antioxidant activity of the compound assessed as DPPH radical scavenging activity after 5 mins by spectrophotometric method. Also on record: unit not given here. In kind it is functional.
A short description of experiment [5]: Antioxidant activity assessed as ABTS radical scavenging activity after 5 mins by spectrophotometric method. In kind it is functional. Set-up: unit not given here.
Experiment [6] has as its system DLD-1. The experiment can be described thus: Cytotoxicity against human DLD1 cells by MTT assay. In kind it is functional, cell-based. In general terms: Tetrazolium dyes change colour on reduction, which living cells bring about.
Experiment [7] deals with Superoxide dismutase 1/2 (Homo sapiens) (UniProt P00441+P04179). The experiment can be described thus: Inhibition of SOD1/SOD2 in human DLD1 cells at 100 uM using xanthine as substrate pretreated for 24 hrs followed by substrate addition measured after 5 mins by NBT dye based spectrophotometric method. In kind it is cell-based.
Experiment [8] addresses T1, Extracellular superoxide dismutase [Cu-Zn] (Homo sapiens) (UniProt P08294).
T1 sequence (whole entry): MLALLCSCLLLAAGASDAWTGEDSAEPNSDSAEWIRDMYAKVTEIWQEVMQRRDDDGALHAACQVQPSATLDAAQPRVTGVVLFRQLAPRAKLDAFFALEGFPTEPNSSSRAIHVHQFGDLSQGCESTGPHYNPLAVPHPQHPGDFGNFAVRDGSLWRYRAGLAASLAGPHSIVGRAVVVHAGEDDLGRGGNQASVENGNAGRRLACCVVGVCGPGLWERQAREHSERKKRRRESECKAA
The experiment can be described thus: Inhibition of SOD3 in human DLD1 cells at 100 uM using xanthine as substrate pretreated for 24 hrs followed by substrate addition after 5 mins by NBT dye based spectrophotometric method. In kind it is cell-based.

Experiment [9] concerns DLD-1. The experiment can be described thus: Down regulation of MRP1 expression in human DLD1 cells at 100 uM after 24 hrs by fluorescence assay. In kind it is functional, cell-based.
Experiment [10] deals with DLD-1. The experiment can be described thus: Antioxidant activity in human DLD1 cells assessed as glutathione reactivity by measuring GSH level per mg protein by ortho-phthalaldehyde probe based fluorescence spectrometric method (reference value: 2.19 +/- 0.18 nmol). In kind it is functional.
Experiment [11] concerns DLD-1. In words: Antioxidant activity in human DLD1 cells assessed as glutathione reactivity by measuring GSSG level per mg protein by ortho-phthalaldehyde probe based fluorescence spectrometric method (reference value: 0.69 nmol). In kind it is functional.
Experiment [12] concerns DLD-1. The experiment can be described thus: Antioxidant activity in human DLD1 cells assessed as ratio of reduced glutathione to oxidized glutathione by ortho-phthalaldehyde probe based fluorescence spectrometric method (reference value: 3.19 +/- 0.2). In kind it is functional.
The test system of experiment [13] is DLD-1. The experiment can be described thus: Antiproliferative activity against human DLD1 cells at 100 uM after 4 to 48 hrs by Alamar blue assay. In kind it is functional, cell-based. In general terms: Resazurin is reduced to fluorescent resorufin, in cell work by metabolically active cells.
In experiment [14] the target is T2, Superoxide dismutase [Mn], mitochondrial (Homo sapiens) (UniProt P04179).
T2 sequence (whole entry): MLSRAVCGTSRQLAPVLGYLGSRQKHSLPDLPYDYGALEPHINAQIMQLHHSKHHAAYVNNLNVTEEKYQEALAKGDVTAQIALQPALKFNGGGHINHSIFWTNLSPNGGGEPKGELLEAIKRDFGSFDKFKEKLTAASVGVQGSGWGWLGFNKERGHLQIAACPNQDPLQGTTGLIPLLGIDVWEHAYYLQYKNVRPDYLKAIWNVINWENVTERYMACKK
The experiment can be described thus: Inhibition of mitochondrial SOD2 in human DLD1 cells at 100 uM using xanthine as substrate pretreated for 24 hrs followed by substrate addition after 5 mins by NBT dye based spectrophotometric method. In kind it is cell-based.

Active and inactive are the calls of the source. The rule behind the calls is not given here.

Sequence of Superoxide dismutase 1/2 (Homo sapiens) (P00441 whole entry, looked up, one chain of several): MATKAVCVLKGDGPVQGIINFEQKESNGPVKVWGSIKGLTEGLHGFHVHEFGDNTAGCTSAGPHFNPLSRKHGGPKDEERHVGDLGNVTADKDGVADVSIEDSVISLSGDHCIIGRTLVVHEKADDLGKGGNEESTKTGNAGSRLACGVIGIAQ

On to `C#CC(=O)OCC`, for which, in experiment [1], the K was 1.75 M⁻¹ s⁻¹.

On to `C/C=C(/C)C(C)=O`, for which the K in experiment [1] was determined as 0.013 M⁻¹ s⁻¹.

Consider `COc1cc(/C=C/C(=O)C(=Cc2ccccc2)C(=O)/C=C/c2ccc(O)c(OC)c2)ccc1O`, for which the inhibition (commonly the change of the read-out against control, counted positive when it falls) in experiment [2] amounted to 58.6%; in experiment [3], 75.1%. The 1/IC50 worked out at 0.012 in experiment [4] and 0.116 in [5]. Moreover, the IC50 (in general, the concentration that gives 50% inhibition) in experiment [4] stood at 84.4 µM; in experiment [5], 8.58 µM; in experiment [6], 5.45 µM. In addition, the inhibition result in experiment [7] and in [8] was “inactive” each time. Further, the result in [9], in experiment [13] and in [1] was Active. The results for the Activity in experiment [10] and in [11] were 4.47 nmol and 1.4 nmol, respectively. Also, in [12], the Ratio is listed as 3.19.

In the case of `CCOc1cc(/C=C/C(=O)C(=Cc2ccccc2)C(=O)/C=C/c2ccc(O)c(OCC)c2)ccc1O`, the inhibition amounted to 54.7% in experiment [2] and 60.5% in experiment [3]. The 1/IC50 in [4] is 0.011; in experiment [5], 0.049. The half-maximal inhibitory concentration (IC50) in experiment [4] stood at 91.4 µM; in experiment [5] it was 20.4 µM; in experiment [6], 5.06 µM. The inhibition result in experiment [7] and in experiment [14] was “Active” in each case. Moreover, the outcome in experiment [9], in experiment [13] and in experiment [1] was Active. Besides, the Activity in [10] stood at 3.27 nmol; in [11] it was 0.48 nmol. Also, the Ratio in experiment [12] is reported as 6.89.

Consider `CCOc1cc(C=C(C(=O)/C=C/c2ccc(O)c(OC)c2)C(=O)/C=C/c2ccc(O)c(OC)c2)ccc1O`, for which the inhibition in experiment [2] is 42.3%; in experiment [3], 94.3%. Moreover, the 1/IC50 in experiment [4] was found to be 0.01; in experiment [5], 0.251. In addition, the half-maximal inhibitory concentration (IC50) in experiment [4] is 123 µM; in [5], 3.98 µM; in experiment [6], 4.26 µM. Also, in [7], the inhibition entry was “Active”. Besides, the inhibition entry in experiment [8] was “inactive”. In addition, the result in [9], in experiment [13] and in experiment [1] was Active. For the same molecule, the Activity in [10] was found to be 5.12 nmol; in [11], 1.02 nmol. The Ratio in experiment [12] is on record as 5.

Take `COc1cc(/C=C/C(=O)C(=Cc2ccc(O)cc2)C(=O)/C=C/c2ccc(O)c(OC)c2)ccc1O`: the inhibition in experiment [2] worked out at 73.8%; in [3], 89.2%. For the same molecule, the 1/IC50 in experiment [4] amounted to 0.021; in experiment [5], 0.158. Further, the half-maximal inhibitory concentration (IC50) was determined as 48.7 µM in experiment [4], 6.32 µM in experiment [5] and 4.08 µM in experiment [6]. For the same molecule, the inhibition result in [7] was “Active”. Moreover, the result in experiment [9], in experiment [13] and in experiment [1] was Active. Besides, the figures for the Activity in experiment [10] and in [11] were 4.8 nmol and 1.2 nmol, respectively. Further, in [12], the Ratio is reported as 3.99.

Turning to `CCOc1cc(/C=C/C(=O)C(=Cc2ccc(OCC)c(OCC)c2)C(=O)/C=C/c2ccc(O)c(OCC)c2)ccc1O`, the results for the inhibition in experiment [2] and in [3] were 69% and 71.4%, respectively. Also, the 1/IC50 worked out at 0.016 in experiment [4] and 0.049 in experiment [5]. The IC50 came out at 61.6 µM in [4], 20.2 µM in experiment [5] and 3.45 µM in experiment [6]. Besides, the inhibition result in [7] and in [8] was “inactive” in each case. The Activity in experiment [10] stood at 2.12 nmol; in experiment [11] it was 3.24 nmol. In experiment [12], the Ratio came to 0.65. Further, the result in experiment [13] and in experiment [1] was Active.

Regarding `CCOc1cc(/C=C/C(=O)CC(=O)/C=C/c2ccc(O)c(OCC)c2)ccc1O` [ETHYL CURCUMIN], the inhibition came out at 93.4% in experiment [2] and 96.1% in [3]. Besides, the 1/IC50 came out at 0.041 in experiment [4] and 0.156 in experiment [5]. For the same molecule, the IC50 in experiment [4] came out at 24.5 µM; in experiment [5] it was 6.4 µM.

As to `COc1cc(/C=C/C(=O)CC(=O)/C=C/c2ccc(O)c(OC)c2)ccc1O` [CURCUMIN], the values for the inhibition in [2] and in [3] were 91.7% and 95%, respectively. Moreover, the 1/IC50 in [4] came to 0.038; in experiment [5], 0.177. For the same molecule, the half-maximal inhibitory concentration (IC50) in experiment [4] was determined as 26.5 µM; in experiment [5], 5.66 µM.

In the case of `CCOc1cc(/C=C/C(=O)C(=Cc2ccc(O)c(O)c2)C(=O)/C=C/c2ccc(O)c(OCC)c2)ccc1O`, the inhibition turned out to be 81.2% in experiment [2] and 98.1% in experiment [3]. Moreover, the 1/IC50 was determined as 0.04 in [4] and 0.275 in experiment [5]. For the same molecule, the IC50 in experiment [4] turned out to be 25.2 µM; in [5], 3.63 µM; in [6], 5.1 µM. For the same molecule, the inhibition entry in [7] and in [8] was “Active” each time. Moreover, the Activity in experiment [10] was found to be 4.41 nmol; in [11] it was 1.16 nmol. Also, in experiment [12], the Ratio amounted to 3.78. The outcome in experiment [13] and in experiment [1] was Active.

`CCOc1cc(C=C(C(=O)/C=C/c2ccc(O)c(OCC)c2)C(=O)/C=C/c2ccc(O)c(OCC)c2)ccc1O`: the inhibition amounted to 50.6% in experiment [2] and 88.5% in [3]. Besides, the results for the 1/IC50 in experiment [4] and in experiment [5] were 0.01 and 0.195, respectively. The figures for the half-maximal inhibitory concentration (IC50) in [4], in experiment [5] and in [6] were 96.7 µM, 5.14 µM and 1.36 µM, respectively. The inhibition entry in experiment [7] and in experiment [8] was “inactive” each time. The figures for the Activity in experiment [10] and in experiment [11] were 3.2 nmol and 0.84 nmol, respectively. Besides, the Ratio in [12] amounted to 3.8. Moreover, the result in experiment [13] and in [1] was Active.

For the molecule `CCOc1cc(/C=C/C(=O)C(=Cc2ccc(O)c(OC)c2)C(=O)/C=C/c2ccc(O)c(OCC)c2)ccc1O`, the inhibition in [2] stood at 63%; in [3] it was 96.6%. The figures for the 1/IC50 in experiment [4] and in [5] were 0.017 and 0.187, respectively. The values for the concentration for half-maximal inhibition (IC50) in [4], in experiment [5] and in [6] were 60.5 µM, 5.36 µM and 9.63 µM, respectively. In addition, the inhibition entry in experiment [8] is “inactive”. The result in experiment [9], in [13] and in experiment [1] was Active. Besides, the values for the Activity in experiment [10] and in experiment [11] were 9.75 nmol and 4.3 nmol, respectively. Also, the Ratio in experiment [12] is given as 2.27.

On to `COc1cc(/C=C/C(=O)C(=Cc2ccc(O)c(O)c2)C(=O)/C=C/c2ccc(O)c(OC)c2)ccc1O`, for which the inhibition is 92.5% in [2] and 98.2% in experiment [3]. The 1/IC50 in experiment [4] came to 0.097; in [5], 0.455. The IC50 is 10.3 µM in experiment [4], 2.2 µM in experiment [5] and 17.6 µM in experiment [6]. In addition, the inhibition result in experiment [7] was “Active”. Besides, the Activity is 2.6 nmol in experiment [10] and 0.5 nmol in experiment [11]. The Ratio in experiment [12] was determined as 5.17. Moreover, the result in experiment [13] was Active. Further, the outcome in experiment [1] was inactive.

In the case of `C=CC(=O)OCCCC`, in [1], the K is 0.142 M⁻¹ s⁻¹.

Take `CCOc1cc(/C=C/C(=O)C(=Cc2ccc(OC)c(OC)c2)C(=O)/C=C/c2ccc(O)c(OCC)c2)ccc1O`: the inhibition was determined as 73.5% in [2] and 80.6% in experiment [3]. Besides, the results for the 1/IC50 in experiment [4] and in [5] were 0.019 and 0.088, respectively. The IC50 in experiment [4] amounted to 53.2 µM; in experiment [5], 11.3 µM; in experiment [6], 42 µM. The inhibition entry in experiment [7] and in [14] was “Active” throughout. The inhibition entry in experiment [8] was “inactive”. In addition, the Activity amounted to 3.24 nmol in experiment [10] and 0.49 nmol in [11]. Besides, the Ratio in experiment [12] worked out at 6.59. Moreover, the outcome in experiment [13] and in experiment [1] was Active.
